Assay results published in US20240277713A1 (Kadmon Corporation, LLC, priority 2022, published 2024).
Marks after values point to notes of the source that are not given here.

Test system: New Zealand White rabbits
Test: Embryo-fetal developmental toxicity study in New Zealand White rabbits (Example 4);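 note: dams given a detailed clinical exam daily GD 6 to 29, about 4 h after dosing, then laparohysterectomy on GD 29 with external, visceral and skeletal fetal examination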

CC(C)NC(=O)COc1cccc(-c2nc(Nc3ccc4[nH]ncc4c3)c3ccccc3n2)c1 [belumosudil, 2-{3-[4-(1H-indazol-5-ylamino)-2-quinazolinyl]phenoxy}-N-(propan-2-yl) acetamide]
Fetal External Malformation: Short Tail, No. Fetuses (incidence) (50 mg base/kg/day): 0 (0.0) | Fetal External Malformation: Short Tail, No. Litters (incidence) (50 mg base/kg/day): 0 (0.0) | Fetal External Malformations, No. Fetuses (incidence) (50 mg base/kg/day): 1 (0.5) | Fetal External Malformations, No. Litters (incidence) (50 mg base/kg/day): 1 (4.5) | Fetal Skeletal Malformations, No. Fetuses (incidence) (50 mg base/kg/day): 8 (4.3) | Fetal Skeletal Malformations, No. Litters (incidence) (50 mg base/kg/day): 6 (27.3) | Fetal Visceral Variations, No. Fetuses (incidence) (50 mg base/kg/day): 6 (3.2) | Fetal Visceral Variations, No. Litters (incidence) (50 mg base/kg/day): 4 (18.2) | Maternal Food Consumption GD 0-29 (50 mg base/kg/day): 141.1 | Maternal Food Consumption GD 6-10 (50 mg base/kg/day): 149.4 | Maternal Food Consumption GD 6-19 (50 mg base/kg/day): 142.7 | Maternal Food Consumption GD 6-19, % Difference From Control (50 mg base/kg/day): −8.8% | Maternal Food Consumption GD 19-29 (50 mg base/kg/day): 136.0 | Mean Fetal Body Weight Females (50 mg base/kg/day): 40.25 g | Mean Fetal Body Weight Genders Combined (50 mg base/kg/day): 40.97 g | Mean Fetal Body Weight Males (50 mg base/kg/day): 41.64 g | Mean Live Litter Size (50 mg base/kg/day): 8.5 | Mean Number of Early Resorptions (50 mg base/kg/day): 0.2 | Mean Number of Resorptions (Combined) (50 mg base/kg/day): 0.2 | Mean Postimplantation Loss (50 mg base/kg/day): 2.42 %/Litter | Number Litters with Viable Fetuses GD29 (50 mg base/kg/day): 22 | Number with All Resorptions GD29 (50 mg base/kg/day): 0 | Number Aborted (50 mg base/kg/day, 23 females): 0 | Number Litters with Viable Fetuses GD29 (50 mg base/kg/day, 23 females): 22 | Number Not Pregnant (50 mg base/kg/day, 23 females): 1 | Number with All Resorptions GD29 (50 mg base/kg/day, 23 females): 0 | Activity decreased, times observed/animals affected (50 mg base/kg/day, GD 0-29): 0/0 | Feces few/absent, times observed/animals affected (50 mg base/kg/day, GD 0-29): 0/0 | Hair discolored, Brown, Anogenital region, times observed/animals affected (50 mg base/kg/day, GD 0-29): 0/0 | Hair discolored, Brown, Ear/left, times observed/animals affected (50 mg base/kg/day, GD 0-29): 12/1 | Hair discolored, Brown, Ear/right, times observed/animals affected (50 mg base/kg/day, GD 0-29): 12/1 | Hair discolored, Brown, Face, times observed/animals affected (50 mg base/kg/day, GD 0-29): 24/3 | Hair discolored, Brown, Hind limb/left, times observed/animals affected (50 mg base/kg/day, GD 0-29): 3/1 | Hair discolored, Red, Anogenital region, times observed/animals affected (50 mg base/kg/day, GD 0-29): 0/0 | Hair discolored, Red, Face, times observed/animals affected (50 mg base/kg/day, GD 0-29): 0/0 | Hair discolored, Red, Forelimb/left, times observed/animals affected (50 mg base/kg/day, GD 0-29): 1/1 | Hair discolored, Red, Thoracic region, times observed/animals affected (50 mg base/kg/day, GD 0-29): 1/1 | Hair discolored, Yellow, Ear/right, times observed/animals affected (50 mg base/kg/day, GD 0-29): 0/0 | Hair discolored, Yellow, Face, times observed/animals affected (50 mg base/kg/day, GD 0-29): 27/2 | Hair sparse, Anogenital region, times observed/animals affected (50 mg base/kg/day, GD 0-29): 0/0 | Hair sparse, Axillary region/left, times observed/animals affected (50 mg base/kg/day, GD 0-29): 0/0 | Hair sparse, Axillary region/right, times observed/animals affected (50 mg base/kg/day, GD 0-29): 0/0 | Hair sparse, Cervical region, times observed/animals affected (50 mg base/kg/day, GD 0-29): 0/0 | Hair sparse, Ear/left, times observed/animals affected (50 mg base/kg/day, GD 0-29): 0/0 | Hair sparse, Ear/right, times observed/animals affected (50 mg base/kg/day, GD 0-29): 0/0 | Hair sparse, Forefoot/left, times observed/animals affected (50 mg base/kg/day, GD 0-29): 5/1 | Hair sparse, Forefoot/right, times observed/animals affected (50 mg base/kg/day, GD 0-29): 4/1 | Hair sparse, Forelimb/left, times observed/animals affected (50 mg base/kg/day, GD 0-29): 5/1 | Hair sparse, Hind limb/left, times observed/animals affected (50 mg base/kg/day, GD 0-29): 5/1 | Hair sparse, Inguinal region/right, times observed/animals affected (50 mg base/kg/day, GD 0-29): 0/0 | Hair sparse, Shoulder/left, times observed/animals affected (50 mg base/kg/day, GD 0-29): 0/0 | Hair sparse, Thoracic region, times observed/animals affected (50 mg base/kg/day, GD 0-29): 0/0 | Hair sparse, Ventral surface, times observed/animals affected (50 mg base/kg/day, GD 0-29): 0/0 | Material in pan/bedding, Red, times observed/animals affected (50 mg base/kg/day, GD 0-29): 0/0 | Nail missing, Forefoot/left, times observed/animals affected (50 mg base/kg/day, GD 0-29): 1/1 | Scabbed area, Ear/left, times observed/animals affected (50 mg base/kg/day, GD 0-29): 0/0 | Scabbed area, Nose/muzzle, times observed/animals affected (50 mg base/kg/day, GD 0-29): 0/0 | Skin discolored, Pale, Entire body, times observed/animals affected (50 mg base/kg/day, GD 0-29): 0/0 | Swelling, Nose/muzzle, times observed/animals affected (50 mg base/kg/day, GD 0-29): 0/0 | Swelling, Vulva, times observed/animals affected (50 mg base/kg/day, GD 0-29): 3/1 | Thin, times observed/animals affected (50 mg base/kg/day, GD 0-29): 0/0 | Fetal External Malformation: Short Tail, No. Fetuses (incidence) (125 mg base/kg/day): 0 (0.0) | Fetal External Malformation: Short Tail, No. Litters (incidence) (125 mg base/kg/day): 0 (0.0) | Fetal External Malformations, No. Fetuses (incidence) (125 mg base/kg/day): 0 (0.0) | Fetal External Malformations, No. Litters (incidence) (125 mg base/kg/day): 0 (0.0) | Fetal Skeletal Malformations, No. Fetuses (incidence) (125 mg base/kg/day): 10 (6.6) | Fetal Skeletal Malformations, No. Litters (incidence) (125 mg base/kg/day): 6 (31.6) | Fetal Visceral Variations, No. Fetuses (incidence) (125 mg base/kg/day): 11 (7.2) | Fetal Visceral Variations, No. Litters (incidence) (125 mg base/kg/day): 7 (36.8) | Maternal Body Weight Change GD 0-29, % Difference From Control (125 mg base/kg/day): −8.6% | Maternal Body Weight GD 19, % Difference From Control (125 mg base/kg/day): −5.1% | Maternal Food Consumption GD 0-29 (125 mg base/kg/day): 128.8 | Maternal Food Consumption GD 0-29, % Difference From Control (125 mg base/kg/day): −11.6% | Maternal Food Consumption GD 6-10 (125 mg base/kg/day): 117.9^b | Maternal Food Consumption GD 6-19 (125 mg base/kg/day): 103.1 | Maternal Food Consumption GD 6-19, % Difference From Control (125 mg base/kg/day): −34.1% | Maternal Food Consumption GD 19-29 (125 mg base/kg/day): 149.9^a | Mean Fetal Body Weight Females (125 mg base/kg/day): 41.14 g | Mean Fetal Body Weight Genders Combined (125 mg base/kg/day): 41.09 g | Mean Fetal Body Weight Males (125 mg base/kg/day): 41.61 g | Mean Live Litter Size (125 mg base/kg/day): 8.0 | Mean Number of Early Resorptions (125 mg base/kg/day): 0.5 | Mean Number of Resorptions (Combined) (125 mg base/kg/day): 0.7 | Mean Postimplantation Loss (125 mg base/kg/day): 7.42 %/Litter | Number Litters with Viable Fetuses GD29 (125 mg base/kg/day): 19 | Number with All Resorptions GD29 (125 mg base/kg/day): 0 | ureter malpositioned, litter incidence (125 mg base/kg/day): 21.1% | Number Aborted (125 mg base/kg/day, 23 females): 1 | Number Litters with Viable Fetuses GD29 (125 mg base/kg/day, 23 females): 19 | Number Not Pregnant (125 mg base/kg/day, 23 females): 3 | Number with All Resorptions GD29 (125 mg base/kg/day, 23 females): 0 | Activity decreased, times observed/animals affected (125 mg base/kg/day, GD 0-29): 0/0 | Feces few/absent, times observed/animals affected (125 mg base/kg/day, GD 0-29): 0/0 | Hair discolored, Brown, Anogenital region, times observed/animals affected (125 mg base/kg/day, GD 0-29): 7/1 | Hair discolored, Brown, Ear/left, times observed/animals affected (125 mg base/kg/day, GD 0-29): 0/0 | Hair discolored, Brown, Ear/right, times observed/animals affected (125 mg base/kg/day, GD 0-29): 0/0 | Hair discolored, Brown, Face, times observed/animals affected (125 mg base/kg/day, GD 0-29): 0/0 | Hair discolored, Brown, Hind limb/left, times observed/animals affected (125 mg base/kg/day, GD 0-29): 0/0 | Hair discolored, Red, Anogenital region, times observed/animals affected (125 mg base/kg/day, GD 0-29): 1/1 | Hair discolored, Red, Face, times observed/animals affected (125 mg base/kg/day, GD 0-29): 2/1 | Hair discolored, Red, Forelimb/left, times observed/animals affected (125 mg base/kg/day, GD 0-29): 0/0 | Hair discolored, Red, Thoracic region, times observed/animals affected (125 mg base/kg/day, GD 0-29): 0/0 | Hair discolored, Yellow, Ear/right, times observed/animals affected (125 mg base/kg/day, GD 0-29): 0/0 | Hair discolored, Yellow, Face, times observed/animals affected (125 mg base/kg/day, GD 0-29): 10/1 | Hair sparse, Anogenital region, times observed/animals affected (125 mg base/kg/day, GD 0-29): 15/2 | Hair sparse, Axillary region/left, times observed/animals affected (125 mg base/kg/day, GD 0-29): 2/1 | Hair sparse, Axillary region/right, times observed/animals affected (125 mg base/kg/day, GD 0-29): 2/1 | Hair sparse, Cervical region, times observed/animals affected (125 mg base/kg/day, GD 0-29): 1/1 | Hair sparse, Ear/left, times observed/animals affected (125 mg base/kg/day, GD 0-29): 0/0 | Hair sparse, Ear/right, times observed/animals affected (125 mg base/kg/day, GD 0-29): 0/0 | Hair sparse, Forefoot/left, times observed/animals affected (125 mg base/kg/day, GD 0-29): 0/0
